# According to patent US20220218701A1, “COMPOSITIONS AND METHODS COMPRISING ENDOTHELIN A RECEPTOR ANTAGONISTS AND ANDROGEN THERAPIES” (priority 2019, published 2022):
# “Also recorded” adds a separate entry of the source.
# Legend:
# osteoblast = settings: cited from earlier work
# [1] = system: castrate-resistant prostate cancer (CRPC); settings: phase 2, 288 men with CRPC, cited from earlier work
# [2] = system: metastatic prostate cancer; settings: cited from earlier work
# metastatic CRPC [3] = settings: cited from earlier work
# [4] = system: prostate cancer bone metastasis; settings: in vivo; cited from earlier work
# [5] = system: breast cancer osteosclerotic bone metastasis; settings: mouse, in vivo; cited from earlier work
# ETAR = target: T1, ETAR (Mus musculus, UniProt Q61614); assay: Il-6 expression (RT-PCR) in calvarial osteoblasts treated with ET-1; format: cell-based; settings: 100 μM zibotentan pre-treatment six hours, then 10 nM ET-1 four hours
# T1 construct: Murine calvarial osteoblasts were collected and cultured as previously described; endogenous in cells; host or cells: primary murine calvarial osteoblasts
# T1 sequence (Q61614 21-427): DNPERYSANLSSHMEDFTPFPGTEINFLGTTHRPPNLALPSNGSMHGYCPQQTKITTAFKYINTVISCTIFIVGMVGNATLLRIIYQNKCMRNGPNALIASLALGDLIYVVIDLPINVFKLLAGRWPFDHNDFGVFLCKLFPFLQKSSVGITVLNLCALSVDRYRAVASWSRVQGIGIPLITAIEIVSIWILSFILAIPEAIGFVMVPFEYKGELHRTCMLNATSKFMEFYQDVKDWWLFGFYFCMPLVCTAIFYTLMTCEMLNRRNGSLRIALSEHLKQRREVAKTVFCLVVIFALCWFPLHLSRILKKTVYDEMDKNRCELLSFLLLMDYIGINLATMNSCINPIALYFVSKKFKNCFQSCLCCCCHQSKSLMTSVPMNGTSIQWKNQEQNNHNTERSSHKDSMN
# Description: Calvarial osteoblasts were cultured and pre-treated with or without 100 μM zibotentan for six hours followed by treatment with or without 10 nM ET-1 for four hours. RNA has then harvested and analyzed for the expression of Il-6, a marker of ET-1 action in osteoblasts. Il-6 expression was normalized to the housekeeping gene Rpl32. Data was analyzed using one-way ANOVA followed by Tukey's multiple comparison test.
# Murine calvarial osteoblasts were collected and cultured as previously described^7. Two days post-confluence, osteoblasts were treated in triplicate with or without 100 μM zibotentan for six hours. This was followed by treatment with or without 10 nM ET-1 for four hours. RNA was collected using Direct-zol™ RNA MiniPrep Plus kit (Zymo, Irvine, Calif.) according to the manufacturer's directions. RNA was then analyzed by RT-PCR using the iTaq Universal SYBR Green One-Step Kit and a C1000 Thermal Cycler with a CFX96 fluorescent real-time attachment (Bio-Rad, Hercules, Calif.) using the following primers: Il-6: F, ccg gag agg aga ctt cac ag; R, gga aat tgg ggt agg aag ga; and Rpl32: F, cag ggt gcg gag aag gtt caa ggg; R, ctt aga gga cac gtt gtg agc aat. […] Changes in mRNA concentration were determined by subtracting […] (Δ=CtIl-6−CtRpl32). […] The fold difference was calculated as 2^ε.
# [6] = system: ARCaPM prostate cancer cell line; assay: ARCaPM prostate cancer bone metastasis model, intracardiac inoculation, castration or sham surgery; format: in vivo, athymic nude mice
# Description: Forty-eight male athymic nude mice either underwent castration or sham surgery at four weeks of age. At 5 weeks of age, mice were inoculated with ARCaPM prostate cancer cell line into the left cardiac ventricle. […] Two days later, mice began zibotentan 25 mg/kg/day or vehicle control by gavage.
# (§1) Forty-eight HSD athymic nude male mice were obtained from Harlan Sprague Dawley (Envigo, Indianapolis, Ind.) after undergoing castration or sham surgery. At five weeks of age, mice were anesthetized using isoflurane vaporizer anesthesia. ARCaPM prostate cancer cells were washed, resuspended in PBS, and inoculated into the left cardiac ventricle at a volume of 100 μl containing 1×10^5 cells, as previously described. Starting at seven days post-inoculation, mice were weighed every 2-3 days.
# Zibotentan is an ETAR-specific antagonist and was obtained from AstraZeneca (Cambridge, England). Zibotentan was dissolved in 1% polysorbate 80 at a concentration of 5 mg/ml. Mice in the treatment group received zibotentan 25 mg/kg/day. Mice in the vehicle control group received an equivalent volume of 1% polysorbate 80 via gavage. Gavage treatments were started two days after the intracardiac inoculations (5 weeks+2 days of age) seven days/week. The dosing scheduled was changed to five days/week at 59 days post-inoculation.
# (§2) Mice were anesthetized using an isoflurane vaporizer anesthetic unit and underwent radiographic imaging using a Faxitron UltraFocus 60 Digital Radiographic Unit (Faxitron, Tucson, Ariz.) every 2-4 weeks with attention paid to the appearance of sclerotic or lytic skeletal lesions.
# Following euthanasia, mouse femora, tibiae, humeri, spines and other bones were harvested and fixed in 10% buffered formalin for 48 hours and decalcified in Immunocal (Decal Chemical Corp, Suffern, N.Y.) for an additional 48 hours. Bones were rinsed, processed and paraffin embedded. Blocks were cut into 5 μm sections, mounted onto charged glass slides, and air-dried overnight.
# Static histomorphometric analysis was performed on embedded samples stained with hematoxylin, eosin, and orange G, a bone matrix stain. Images of the samples were taken at 4× with Nikon Eclipse 90i upright microscope and Nikon HD Cooled Color Digital Camera DXM1200C paired with Nikon ACT-1C software. Each sample produced 10 to 30 tiled scans of the whole specimen and were stitched using Adobe Photoshop CC. Tumor area was traced and measured on Adobe Photoshop CC with Cintiq 22HD touch (Wacom) tablet PC and stylus. Then, measured tumor area was divided by each subject's age in days for further statistical analysis.
# Forty-eight male athymic nude mice underwent castration (24 mice) or sham surgery (24 mice) at three weeks of age. At five weeks of age, ARCaPM prostate cancer cells (1×10^5 cells in 100 μl) were inoculated into the left cardiac ventricle. […] Two days later, zibotentan 25 mg/kg/day or vehicle control treatments by gavage were started. This strategy produced four experimental groups: vehicle+sham (Veh+Sham), vehicle+castrate (Veh+Castr), zibotentan+sham (Zibo+Sham), and zibotentan+castrate (Zibo+Castr) (FIG. 2).
# ET-1 = assay: Serum ET-1 ELISA at euthanasia in the ARCaPM model; format: in vivo, mice
# Description: Sera were collected at euthanasia and frozen. Thawed sera were analyzed for ET-1 concentration using ELISA in the four experimental groups and further subdivided into the presence or absence of prostate cancer lesions. Data was analyzed using two-way ANOVA. Treatment with zibotentan was a significant source of statistical variation. Blood was collected at euthanasia. Sera was collected using serum-separator centrifuge tubes (BD Microtainer®, SST, Becton Dickinson, Franklin Lakes, N.J.), and frozen at −80° C. for later analyses. ET-1 concentration was measured in thawed sera using an ET-1 colorimetric ELISA kit (R&D Systems, Minneapolis, Minn.) and a BioTek Synergy HTX plate reader (Winooski, Vt.).
# [7] = Body weight and adverse effects in the ARCaPM model; format: in vivo, athymic nude mice
# Description: Mice body weights were measured starting at 7 days post-inoculation and continued every 2-3 days until the completion of the experiment at 152 days. Two days after inoculation, mice began to receive zibotentan or vehicle control. Due to potential adverse effects in the Zibo+Castr group, the dosing was reduced to 5 days/week starting at day 59 post inoculation. Veh=vehicle control; Zibo=zibotentan; Sham=sham surgery; Castr=castration
# as §1, §2
# The mice underwent radiographic imaging every 2-4 weeks to monitor for the development of bone lesions. Mice were also monitored frequently for abnormal behavior indicating the presence of a large tumor burden. Euthanasia was performed according to pre-determined humane endpoints—15% weight loss, paralysis, skeletal fractures, or any other signs of distress. Mice were weighed every 2-3 days (FIG. 3). As expected, mice in the castration groups had less weight gain compared to the sham groups, as has been reported elsewhere.
# [8] = target: T2, endothelin B receptor (ETBR) (Homo sapiens, UniProt P24530); settings: cited from earlier work
# T2 sequence (P24530 27-442): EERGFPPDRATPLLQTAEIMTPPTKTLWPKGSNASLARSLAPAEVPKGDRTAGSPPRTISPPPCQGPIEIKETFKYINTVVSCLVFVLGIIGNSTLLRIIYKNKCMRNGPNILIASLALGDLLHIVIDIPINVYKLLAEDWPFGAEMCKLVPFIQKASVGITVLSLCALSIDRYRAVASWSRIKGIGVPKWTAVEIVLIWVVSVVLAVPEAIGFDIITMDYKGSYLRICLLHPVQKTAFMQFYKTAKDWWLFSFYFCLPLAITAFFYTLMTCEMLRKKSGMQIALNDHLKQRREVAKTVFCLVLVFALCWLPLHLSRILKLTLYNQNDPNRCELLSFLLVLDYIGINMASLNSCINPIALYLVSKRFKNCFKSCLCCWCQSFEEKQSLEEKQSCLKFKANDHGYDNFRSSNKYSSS
# metastatic CRPC [9] = settings: phase 2, 312 men with metastatic CRPC; increased from 17.3; cited from earlier work
# [10] = system: non-metastatic prostate cancer; settings: phase 3, monotherapy, non-metastatic disease; stopped early; cited from earlier work
# [11] = as reported by the applicant's group; cited from earlier work
# [12] = Zibo + Castr group, zibotentan 25 mg/kg/day gavage
# [13] = Zibo + Sham group, zibotentan 25 mg/kg/day gavage
# [14] = Zibo+Sham vs Veh+Sham and Veh+Castr groups
# [15] = effect of castration in zibotentan treated groups, Zibo+Castr vs. Zibo+Sham
smiles,measurement,setting,value
CCCCN(CCCC)C(=O)CN1C[C@H](c2ccc3c(c2)OCO3)[C@@H](C(=O)O)[C@@H]1c1ccc(OC)cc1 [atrasentan],anabolic effects of ET-1 on the osteoblast,osteoblast,block
same,prostate-specific antigen (PSA) progression,[1],delayed
same,time to progression,[1]; increased from 129,196 days
same,time to progression (primary endpoint),"[2]; phase 3, 809 men with metastatic disease",did not reduce
same,bone alkaline phosphatase progression,"[2]; phase 3, secondary analyses",did reduce
same,overall or progression-free survival compared to placebo,metastatic CRPC [3]; men with metastatic CRPC treated with docetaxel,did not improve
same,survival,metastatic CRPC [3]; patients with the highest circulating levels of bone turnover markers,survival benefit
same,bone lesions,[4],significantly reduced
same,lesions outside of the skeleton such as adrenal gland and liver,[4],not lesions outside of the skeleton
same,formation of osteoblastic lesions,[5],blocked
same,tumor progression outside of bone,[5],not tumor progression outside of bone
COc1nc(C)cnc1NS(=O)(=O)c1cccnc1-c1ccc(-c2nnco2)cc1 [zibotentan],"Il-6 expression (marker of ET-1 action, normalized to Rpl32)",ETAR,prevented the increase in Il-6 expression; also recorded: blocks ETAR signaling
same,"number of skeletal lesions, Left leg Prox tibia",[6]; [12],1
same,"number of soft tissue lesions, TOTAL",[6]; [12],0
same,"number of skeletal lesions, Left leg Dist femur",[6]; [13],1
same,"number of skeletal lesions, Left leg Prox tibia",[6]; [13],1
same,"number of skeletal lesions, Maxilla",[6]; [13],2
same,"number of skeletal lesions, Rib",[6]; [13],1
same,"number of skeletal lesions, Right arm Prox humerus",[6]; [13],1
same,"number of skeletal lesions, Right arm Prox radius",[6]; [13],1
same,"number of skeletal lesions, TOTAL",[6]; [13],8
same,"number of skeletal lesions, Thoracic spine T10",[6]; [13],1
same,"number of soft tissue lesions, Adrenal Right",[6]; [13],1
same,"number of soft tissue lesions, Eye Left",[6]; [13],1
same,"number of soft tissue lesions, TOTAL",[6]; [13],2
same,time to bone-specific tumor events,"[6]; Zibo+Castr compared to Zibo+Sham group, p=0.0250",longer
same,detectable tumor at the completion of the experiment,"[6]; Zibo+Castr group, day 152",No mouse
same,survival,[6]; Zibo+Castr vs Veh+Sham groups,no survival difference
same,time to a tumor event (tumor-free status),"[6]; Zibo+Castr vs Zibo+Sham group, p=0.0149",significantly longer time to a tumor event
same,radiographically apparent lesions at the end of the experiment,"[6]; Zibo+Castr, 152 days",lack of radiographically apparent lesions
same,survival (Kaplan-Meier),"[6]; Zibo+Sham group, p=0.0045",significantly shorter survival
same,skeletal lesion area (histomorphometry),[6]; [14],No significant differences
same,tumor area adjusted to the day post-inoculation of euthanasia,[6]; [14],differences among the groups were not detected
same,survival,"[6]; absence of androgen, Zibo+Castr vs. Veh+Castr, p=0.0050",improved survival
same,number of skeletal lesions,[6]; [15],reduced the number of skeletal lesions
same,survival,[6]; [15],increased survival
same,survival,"[6]; sham-operated mice, Zibo+Sham vs. Veh+Sham, p=0.0171",decrease survival
same,serum ET-1 concentration,ET-1; zibotentan-treated tumor-bearing mice vs tumor-free,trend for higher serum ET-1
same,serum ET-1 concentration,"ET-1; zibotentan-treated vs vehicle control mice, sera at euthanasia",significant increase; also recorded: higher
same,body weight gain,[7]; Zibo+Castr group,lack of significant weight gain was more evident
same,"radiographic images, intestinal air",[7]; Zibo+Castr group,intestinal gas distension within the stomach and intestines
same,mice that lost more than 15% of weight and were euthanized,"[7]; Zibo+Castr group, 34 and 42 days post-inoculation, no tumor found",Two
same,abdominal distension,"[7]; Zibo+Castr group, within 2-4 weeks of treatment initiation",developed abdominal distension
same,unintended consequences of zibotentan and castration,[7]; combination of zibotentan and castration,"weight loss, diffuse gas distention within the stomach and intestines, and respiratory epithelial inflammation"
same,affinity for the endothelin B receptor (ETBR),[8],no affinity
same,overall survival,metastatic CRPC [9],24.5 months
same,overall survival (primary outcome),[10],lack of effect
same,side effect underlying gastrointestinal effects,[11],immune-related damage of nasal olfactory epithelium leading to aerophagia and intestinal distention
